Data: the supplement of paper PMC10307832

Tests used:
Assay in all cases: relative viability (nuclei count vs DMSO), 5 days (fraction); higher = more cells survive
Ponatinib + Dasatinib = compound: Cc1ccc(C(=O)Nc2ccc(CN3CCN(C)CC3)c(C(F)(F)F)c2)cc1C#Cc1cnc2cccnn12 [Ponatinib] + Cc1nc(Nc2ncc(C(=O)Nc3c(C)cccc3Cl)s2)cc(N2CCN(CCO)CC2)n1 [Dasatinib] (partner 0.075 µM)
Procedure, shortened: (§1)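 Cells from lung cancer lines were seeded into 1536-well plates and, one day later, dosed by pin tool. Treatments were either a single drug or a fixed dose of an anchor drug with five library-drug doses (not always all listed) in √10 steps. After 5 days, nuclei were stained in a one-step fixation (final 0.05% Triton X-100, 1% formaldehyde, 1 ug/ml Hoechst) and counted on 4× images, and relative viability is the treated-to-vehicle nuclei ratio, as the median of duplicate plates.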

Pazopanib + Phenformin = compound: Cc1ccc(Nc2nccc(N(C)c3ccc4c(C)n(C)nc4c3)n2)cc1S(N)(=O)=O [Pazopanib] + N=C(N)NC(=N)NCCc1ccccc1 [Phenformin] (partner 250 µM)
Procedure, shortened: as §1

Ponatinib + Alpelisib = compound: Cc1ccc(C(=O)Nc2ccc(CN3CCN(C)CC3)c(C(F)(F)F)c2)cc1C#Cc1cnc2cccnn12 [Ponatinib] + Cc1nc(NC(=O)N2CCC[C@H]2C(N)=O)sc1-c1ccnc(C(C)(C)C(F)(F)F)c1 [Alpelisib] (partner 2 µM)
Procedure, shortened: as §1

Pazopanib + Foretinib = compound: Cc1ccc(Nc2nccc(N(C)c3ccc4c(C)n(C)nc4c3)n2)cc1S(N)(=O)=O [Pazopanib] + COc1cc2c(Oc3ccc(NC(=O)C4(C(=O)Nc5ccc(F)cc5)CC4)cc3F)ccnc2cc1OCCCN1CCOCC1 [Foretinib] (partner 0.25 µM)
Procedure, shortened: as §1

Row | Cell Line | relative viability (Ponatinib + Dasatinib; first compound 0.002 µM) | relative viability (Ponatinib + Dasatinib; first compound 0.006325 µM) | relative viability (Ponatinib + Dasatinib; first compound 0.06325 µM) | relative viability (Ponatinib + Dasatinib; first compound 0.2 µM) | relative viability (Pazopanib + Phenformin; first compound 0.01 µM) | relative viability (Pazopanib + Phenformin; first compound 0.03162 µM) | relative viability (Pazopanib + Phenformin; first compound 0.1 µM) | relative viability (Pazopanib + Phenformin; first compound 0.3162 µM) | relative viability (Pazopanib + Phenformin; first compound 1 µM) | relative viability (Ponatinib + Alpelisib; first compound 0.002 µM) | relative viability (Ponatinib + Alpelisib; first compound 0.006325 µM) | relative viability (Ponatinib + Alpelisib; first compound 0.06325 µM) | relative viability (Ponatinib + Alpelisib; first compound 0.2 µM) | relative viability (Pazopanib + Foretinib; first compound 0.01 µM) | relative viability (Pazopanib + Foretinib; first compound 0.03162 µM) | relative viability (Pazopanib + Foretinib; first compound 0.1 µM) | relative viability (Pazopanib + Foretinib; first compound 0.3162 µM) | relative viability (Pazopanib + Foretinib; first compound 1 µM)
1 | NCI-H2405 | 0.17 | 0.206 | 0.187 | 0.202 | 0.368 | 0.399 | 0.426 | 0.419 | 0.448 | 0.86 | 0.922 | 0.98 | 0.666 | 0.997 | 1.13 | 1.11 | 1.11 | 1.08
2 | NCI-H3122 | 0.773 | 0.85 | 0.838 | 0.809 | 0.417 | 0.388 | 0.345 | 0.36 | 0.376 | 0.883 | 0.86 | 0.863 | 0.909 | 0.999 | 0.932 | 1.01 | 0.992 | 0.996
3 | PC-3 [JPC-3] | 0.99 | 0.981 | 1.12 | 0.917 | 0.52 | 0.465 | 0.513 | 0.472 | 0.478 | 1 | 1.09 | 1.02 | 1.09 | 1.05 | 1.01 | 1.12 | 1.06 | 0.995
4 | PC-14 | 0.244 | 0.24 | 0.292 | 0.248 | 0.747 | 0.692 | 0.607 | 0.823 | 0.677 | 0.856 | 0.906 | 1.05 | 0.879 | 0.962 | 0.972 | 1.11 | 1.03 | 1
5 | RERF-LC-KJ | 0.707 | 0.824 | 0.93 | 0.844 | 0.445 | 0.419 | 0.43 | 0.417 | 0.417 | 0.904 | 0.739 | 1.02 | 0.889 | 0.844 | 0.859 | 0.857 | 0.86 | 0.792
6 | SK-LU-1 | 0.19 | 0.178 | 0.172 | 0.137 | 0.505 | 0.627 | 0.537 | 0.571 | 0.575 | 0.945 | 1.14 | 0.952 | 0.646 | 0.872 | 0.988 | 0.884 | 0.851 | 0.809
7 | SK-MES-1 | 0.32 | 0.413 | 0.455 | 0.33 | 0.734 | 0.661 | 0.668 | 0.669 | 0.688 | 0.981 | 0.949 | 1.32 | 1.05 | 0.95 | 0.985 | 0.951 | 0.951 | 1.1
8 | SW 1573 | 0.451 | 0.507 | 0.466 | 0.485 | 0.406 | 0.36 | 0.471 | 0.437 | 0.509 | 0.788 | 0.716 | 0.857 | 0.693 | 0.83 | 0.938 | 0.934 | 0.998 | 0.998
